According to patent US10766888B1, “HMOX1 inducers” (Mitobridge Inc., priority 2019, dated 2020):

Test system: Human Heme Oxygenase-1 (HMOX-1)
Experiment: ELISA assay to measure human heme oxygenase-1 (HMOX-1) in HepG2 lysate
Type: cell-based
Conditions: for EC50: human HMOX1 protein level in HepG2 lysate, * = average of 2 or more EC50 determinations, NA = Not Active, read-out: EC50; for Maximum Fold induction: fold change of human HMOX1 protein level relative to DMSO control, HepG2
Description: Example 143. ELISA Assay to Measure Human Heme Oxygenase-1 (HMOX-1) in HepG2 lysate
Reagents and Technical Notes:
ELISA capture antibody, standard HO-1, detection antibody and streptavidin HRP were supplied in the DuoSet IC Human total HO-1 ELISA from R&D systems (DYC3776-2). The substrate cocktail was KPL LumiGLO reserve Chemiluminescent Substrate (54-71-00). PBS was Corning Cellgro Cell Culture (21-040-CV). 10×PBS+0.05% tween20 (PBST) was from KPL.
All incubations of the plate were at room temperature (20° C.) in a closed drawer.
The ELISA plate was processed manually. All loadings were with a multichannel pipet. Plates were emptied by shaking into the sink and tapping onto paper towels to remove any remaining reagent. Plate washing was accomplished by loading all wells with PBS+0.05% tween20 (PBST) using a squirt bottle, shaking the PBST out and tapping the plate onto paper towels.
Preparation of the ELISA Plate:
• 1. anti-HO-1 capture antibody was 1440 μg/ml after reconstitution in PBS. This antibody was diluted to 8 μg/ml in PBS and 50 μl per well was added to a 384 well greiner “lumitrac 200” plate. Incubated overnight. • 2. The plate was emptied and 100 μl PBS+1% BSA added to all wells. Incubated 90 minutes at room temperature. Preparation of HepG2 Lysate: • 1. Cells were cultured in a 96-well tissue culture plate washed with PBS and then the plate frozen at −70° C. overnight. Plates were allowed to warm to ice temperature in an ice bucket. 20 μl of PBS, 0.5% Triton X100, 1 mM EDTA with 1×HALT™ protease inhibitors was added to each well and the plates incubated on ice for 1 hour. • 2. The lysates were frozen at −20° C. overnight. Measurement of HMOX1 (“HO-1”) • 1. In a polypropylene 384 well plate, human HO-1 (after reconstitution in PBS+0.5% Triton+1 mM EDTA) was serially diluted from 20 ng/ml 2-fold in PBS+0.5% triton-X100, 1 mM EDTA to make a 12-point standard curve including a zero point. • 2. In a polypropylene 96 well plate, HepG2 lysate was diluted 1 to 20 in Diluent #4 from DUOSET kit in which the assay standard is also diluted. • 3. The PBS+1% BSA was emptied from the ELISA plate and 30 μl of all samples and standards were added (duplicates recommended). The plate was incubated 90 minutes. • 4. Emptied plate and washed 4 times with PBST. • 5. Diluted HO-1 detection antibody to 200 ng/ml in PBS+1% BSA and added 30 μl to all wells. Incubated 90 minutes. • 6. Emptied plate and washed 4 times with PBST. • 7. Added 30 μl streptavidin HRP at 1/200 in PBS+1% BSA (stock streptavidin concentration not specified) to all wells. Incubated 30 minutes. • 8. Emptied plate and washed 4 times with PBST. • 9. Diluted Lumiglo reserve reagent two parts buffer to one part lumiglo substrate. Added 30 μl to all wells. Incubated 5 minutes. • 10. Measured chemiluminescence on spectramax M5 using 150 ms integration.
Table 1 below lists EC50 and fold changes of human HMOX1 protein levels relative to DMSO control upon treatment with representative compounds.

EC50 | Maximum Fold induction | SMILES
4.4 µM | – | Cn1c(Nc2nc3ccccc3o2)nc2cc(C(=O)O)ccc21 [Example 1h, 2-(benzo[d]oxazol-2-ylamino)-1-methyl-1H-benzo[d]imidazole-5-carboxylic acid]
0.8 µM | – | COCCNC(=O)c1ccc2c(c1)nc(Nc1nc3ccccc3o1)n2C [Example 1i, 2-(benzo[d]oxazol-2-ylamino)-N-(2-methoxyethyl)-1-methyl-1H-benzo[d]imidazole-5-carboxamide]
3.8 µM | – | COCCNC(=O)c1ccc2c(c1)nc(Nc1nc3ccc(OC(F)(F)F)cc3s1)n2C1CCOCC1 [Example 2e, N-(2-methoxyethyl)-1-(tetrahydro-2H-pyran-4-yl)-2-((6-(trifluoromethoxy)benzo[d]thiazol-2-yl)amino)-1H-benzo[d]imidazole-5-carboxamide]
9.2 µM | – | CN1CCC(n2c(Nc3nc4ccc(OC(F)(F)F)cc4s3)nc3cc(C(=O)O)ccc32)CC1 [Example 3d, 1-(1-methylpiperidin-4-yl)-2-((6-(trifluoromethoxy)benzo[d]thiazol-2-yl)amino)-1H-benzo[d]imidazole-5-carboxylic acid]
1.1 µM | – | COCCNC(=O)c1ccc2c(c1)nc(Nc1nc3ccc(OC(F)(F)F)cc3s1)n2C1CCN(C)CC1 [Example 3e, N-(2-methoxyethyl)-1-(1-methylpiperidin-4-yl)-2-((6-(trifluoromethoxy)benzo[d]thiazol-2-yl)amino)-1H-benzo[d]imidazole-5-carboxamide]
4.7 µM | – | CN1CCC(n2c(Nc3nc4ccc(OC(F)(F)F)cc4s3)nc3cc(C(=O)O)ccc32)C1 (centres unmarked) [Example 4d, 1-(1-methylpyrrolidin-3-yl)-2-((6-(trifluoromethoxy)benzo[d]thiazol-2-yl)amino)-1H-benzo[d]imidazole-5-carboxylic acid]
6.6 µM | – | COCCNC(=O)c1ccc2c(c1)nc(Nc1nc3c(s1)COCC3)n2C [Example 11, 2-((6,7-dihydro-4H-pyrano[4,3-d]thiazol-2-yl)amino)-N-(2-methoxyethyl)-1-methyl-1H-benzo[d]imidazole-5-carboxamide]
4.5 µM | – | COCCNC(=O)c1ccc2c(c1)nc(Nc1nc3ccccc3[nH]1)n2C [Example 12, 2-((1H-benzo[d]imidazol-2-yl)amino)-N-(2-methoxyethyl)-1-methyl-1H-benzo[d]imidazole-5-carboxamide]
5.3 µM | – | Cn1c(Nc2nc3cc(C(=O)O)ccc3n2C)nc2cc(OC(F)(F)F)ccc21 [Example 15, 1-methyl-2-((1-methyl-5-(trifluoromethoxy)-1H-benzo[d]imidazol-2-yl)amino)-1H-benzo[d]imidazole-5-carboxylic acid]
1.1 µM | – | CN(C)CCNC(=O)c1ccc2c(c1)nc(Nc1nc3ccccc3o1)n2C [Example 21, 2-(benzo[d]oxazol-2-ylamino)-N-(2-(dimethylamino)ethyl)-1-methyl-1H-benzo[d]imidazole-5-carboxamide]
3.2 µM | – | Cn1c(Nc2nc3ccc(OC(F)(F)F)cc3o2)nc2cc(C(=O)NCCS(C)(=O)=O)ccc21 [Example 54, 1-methyl-N-(2-(methylsulfonyl)ethyl)-2-((6-(trifluoromethoxy)benzo[d]oxazol-2-yl)amino)-1H-benzo[d]imidazole-5-carboxamide]
4.5 µM | 15 fold | COCCOc1ccc2nc(Nc3nc4cc(C(=O)O)ccc4n3C)oc2c1 [Example 55, 2-((6-(2-methoxyethoxy)benzo[d]oxazol-2-yl)amino)-1-methyl-1H-benzo[d]imidazole-5-carboxylic acid]
3.3 µM | – | CC(C)c1ccc2nc(Nc3nc4cc(C(=O)O)ccc4n3C)oc2c1 [Example 59, 2-((6-isopropylbenzo[d]oxazol-2-yl)amino)-1-methyl-1H-benzo[d]imidazole-5-carboxylic acid]
1.2 µM | 15.42 fold | COCCNC(=O)c1ccc2c(c1)nc(Nc1nc3cc(C)ccc3o1)n2C [Example 65, N-(2-methoxyethyl)-1-methyl-2-((5-methylbenzo[d]oxazol-2-yl)amino)-1H-benzo[d]imidazole-5-carboxamide]
5.4 µM | – | Cn1c(Nc2nc3cc(F)ccc3o2)nc2cc(C(=O)O)ccc21 [Example 66, 2-((5-fluorobenzo[d]oxazol-2-yl)amino)-1-methyl-1H-benzo[d]imidazole-5-carboxylic acid]
2 µM | – | Cn1c(Nc2nc3ccc(F)cc3o2)nc2cc(C(=O)O)ccc21 [Example 68, 2-((6-fluorobenzo[d]oxazol-2-yl)amino)-1-methyl-1H-benzo[d]imidazole-5-carboxylic acid]
3.2 µM | – | Cn1c(Nc2nc3ccc(OC(F)(F)F)cc3o2)nc2cc(C(=O)O)c(F)cc21 [Example 70, 6-fluoro-1-methyl-2-((6-(trifluoromethoxy)benzo[d]oxazol-2-yl)amino)-1H-benzo[d]imidazole-5-carboxylic acid]
3.6 µM | – | CN(C)CCn1c(Nc2nc3ccc(OC(F)(F)F)cc3o2)nc2cc(C(=O)O)ccc21 [Example 74, 1-(2-(dimethylamino)ethyl)-2-((6-(trifluoromethoxy)benzo[d]oxazol-2-yl)amino)-1H-benzo[d]imidazole-5-carboxylic acid]
2.7 µM | – | COCCNC(=O)c1ccc2c(c1)nc(Nc1nc3cc(OC(F)(F)F)ccc3[nH]1)n2CCOC [Example 76, N,1-bis(2-methoxyethyl)-2-((5-(trifluoromethoxy)-1H-benzo[d]imidazol-2-yl)amino)-1H-benzo[d]imidazole-5-carboxamide]
4.1 µM | – | COCCn1c(Nc2nc3ccc(OC(F)(F)F)cc3o2)nc2cc(C(=O)O)ccc21 [Example 77, 1-(2-methoxyethyl)-2-((6-(trifluoromethoxy)benzo[d]oxazol-2-yl)amino)-1H-benzo[d]imidazole-5-carboxylic acid]
2.2 µM | – | COCCNC(=O)c1ccc2c(c1)nc(Nc1nc3ccc(OC(F)(F)F)cc3o1)n2CCOC [Example 78, N,1-bis(2-methoxyethyl)-2-((6-(trifluoromethoxy)benzo[d]oxazol-2-yl)amino)-1H-benzo[d]imidazole-5-carboxamide]
1.9 µM | – | COCCNC(=O)c1ccc2c(c1)nc(Nc1nc3ccc(OC(F)(F)F)cc3o1)n2C1CCOCC1 [Example 80, N-(2-methoxyethyl)-1-(tetrahydro-2H-pyran-4-yl)-2-((6-(trifluoromethoxy)benzo[d]oxazol-2-yl)amino)-1H-benzo[d]imidazole-5-carboxamide]
2.3 µM | – | COCCNC(=O)c1ccc2c(c1)nc(Nc1nc3cc(OC(F)(F)F)ccc3[nH]1)n2C1CCOCC1 [Example 81, N-(2-methoxyethyl)-1-(tetrahydro-2H-pyran-4-yl)-2-((5-(trifluoromethoxy)-1H-benzo[d]imidazol-2-yl)amino)-1H-benzo[d]imidazole-5-carboxamide]
2.4 µM | – | Cn1c(Nc2nc3cc(Cl)ccc3[nH]2)nc2cc(C(=O)O)ccc21 [Example 82, 2-((5-chloro-1H-benzo[d]imidazol-2-yl)amino)-1-methyl-1H-benzo[d]imidazole-5-carboxylic acid]
1.8 µM | – | COCCNC(=O)c1ccc2c(c1)nc(Nc1nc3cc(Cl)ccc3[nH]1)n2C [Example 83, 2-((5-chloro-1H-benzo[d]imidazol-2-yl)amino)-N-(2-methoxyethyl)-1-methyl-1H-benzo[d]imidazole-5-carboxamide]
5.4 µM | – | CCn1c(Nc2nc3ccc(OC(F)(F)F)cc3o2)nc2cc(C(=O)O)ccc21 [Example 84, 1-ethyl-2-((6-(trifluoromethoxy)benzo[d]oxazol-2-yl)amino)-1H-benzo[d]imidazole-5-carboxylic acid]
1.3 µM | – | CCn1c(Nc2nc3ccc(OC(F)(F)F)cc3o2)nc2cc(C(=O)NCCOC)ccc21 [Example 85, 1-ethyl-N-(2-methoxyethyl)-2-((6-(trifluoromethoxy)benzo[d]oxazol-2-yl)amino)-1H-benzo[d]imidazole-5-carboxamide]
